# How the values were obtained:
# [1] = tested on: Imidazoline I2 (Peripheral) Receptor; test: Radioligand binding, [3H] Idazoxan, kidney; parameters: species or system Wistar rat; conditions: compound at 10 μM
# Method: (§1) Compounds of the invention were subjected to specific binding assays to test their ability to bind to the receptors and transporter proteins described below.
# (I) Imidazoline I2 (Peripheral) Receptor:
# • Reference: Brown et al., Brit. J. Pharmacol., 99:803-809, (1990) • Source: Wistar rat kidney • Ligand: 5 nM [^3H]
# [2] = molecular target: T1, Sigma σ1 Receptor (Homo sapiens, UniProt Q99720); test: Radioligand binding, [3H] Haloperidol, jurkat cells; conditions: compound at 10 μM
# T1 construct: Source: Human jurkat cells; endogenous in cells; host or cells: Jurkat cells
# Method: as §1
# • Reference: Ganaphthy et al., Pharmacol. Exp. Ther., 289:251-260, (1999) • Source: Human jurkat cells • Ligand: 8 nM [3H]
# [3] = molecular target: T2, VMAT-2 (Rattus norvegicus, UniProt Q01827); test: [3H] Dihydrotetrabenazine binding assay for VMAT-2 (Assay B); conditions: [3H] dihydrotetrabenazine 5 nM, rat brain homogenate, competition binding
# T2 construct: from tissue; host or cells: rat brain, 6 mm coronal slice incorporating the striatum, homogenate
# Source text: Screen for VMAT-2 binding activity using a [^3H] Dihydrotetrabenazine binding Assay
# Dihydrotetrabenazine is a very potent and selective inhibitor of VMAT-2, and binds with high affinity (nM range) to this vesicular transporter. [^3H] Dihydrotetrabenazine has been successfully used for many years as a radioligand to label VMAT-2 in human, bovine and rodent brain (e.g. Scherman et al. J. Neurochem. 50, 1131-1136 (1988); Near et al. Mol. Pharmacol. 30, 252-257 (1986); Kilbourn et al. Eur. J. Pharmacol. 278, 249-252 (1995); and Zucker et al. Life Sci. 69, 2311-2317 (2001)).
# Charles River CD-1 rats were euthanized by decapitation and the brains dissected free and placed in ice cold PBS. The chilled brain was placed in a coronal brain matrix (Activational Systems, Inc) with 1 mm intervals. Single edge razor blades were inserted such that a 6 mm slice incorporating the striatum was removed. The tissue was weighed and placed in an ice-cold hand homogenizer, 10 volumes of KBS-EDTA (137 mM KCl, 3 mM NaCl, 8 mM K2HPO4, 1.5 mM NaH2PO4, 1 mM EDTA, pH 8.0) were added and the tissue homogenized with 10 strokes (maintaining on ice). Aliquots were placed into 500 μl microfuge tubes and then stored at −80° C. for later assays. A fresh aliquot was taken for protein assay. Protein concentrations were determined using BCA Protein Assay (Pierce Chemical) with bovine serum albumin as the standard. For VMAT2 assay, aliquots were thawed and placed on ice, and diluted with KBS-EDTA for a final protein concentration of 1 mg/ml.
# Whatman GF/C filters (Acros) were presoaked with PBS/0.1% polyethylenimine at room temperature and then placed on a 48 place cell harvester (Brandel). Harvester was loaded with labeled tubes (12×75 mm) in the test tube rack. Into the tubes were placed 10 μl of the compound dilutions to their respective triplicate tubes and 1 μl of 10 mM TBZ added to the tubes used for non-specific binding measurements. Into each tube was then placed 0.5 ml of a 10 nM [^3H] dihydrotetrabenazine (DTBZ) dilution (American Radiolabeled Chemicals) in KBS-EDTA, the tubes were vortexed, and then 0.5 ml of the 1 mg/ml rat forebrain tissue homogenate solution was added into all tubes. Each tube was vortexed briefly and then incubated at room temperature for 30 minute.
# Final concentrations of samples were 500 μg protein, 5 nM [3H]DTBZ; 10 μM TBZ (for nonspecific tubes) in 1 ml total volume. […] Filter circles were placed in scintillation vials and 10 ml of Universol (ICN) was added, samples incubated overnight and then counted on a Packard Tri-Carb 1600 scintillation counter.
# Competition binding isotherms were analyzed with the use of computer-assisted nonlinear curve-fitting (LIGAND program) using both one and two site models.
# [4] = molecular target: T3, Dopamine D1 Receptor (Homo sapiens, UniProt P21728); test: Radioligand binding, [3H] SCH-23390; conditions: compound at 10 μM
# T3 construct: expressed in transfected cells; host or cells: CHO cells
# Method: as §1
# (d) Dopamine D1 Receptor:
# • Reference: Dearry et al., Nature, 347:72-76, (1990) • Source: Human recombinant CHO cells • Ligand: 1.4 nM [3H] SCH-23390 • Vehicle: 1% DMSO • Incubation time/Temp: 2 hours @ 37° C. • Incubation buffer: 50 mM Tris-HCl, pH 7.4, 150 mM NaCl, 1.4 mM ascorbic acid, 0.001% BSA • Non Specific ligand: 10 μM (+)-butaclamol • Kd: 1.4 nM • Bmax: 0.63 pmole/mg protein • Specific binding: 90% • Quantitation method: Radioligand binding • Significance criteria: ≧50% of maximum stimulation or inhibition
# [5] = tested on: Imidazoline I2 (Central) Receptor; test: Radioligand binding, [3H] Idazoxan, cerebral cortex; parameters: species or system Wistar rat; conditions: compound at 10 μM
# Method: as §1
# (k) Imidazoline I2 (Central) Receptor:
# • Reference: Brown et al., Brit. J. Pharmacol., 99:803-809, (1990) • Source: Wistar rat cerebral cortex • Ligand: 2 nM [^3H]
# [6] = molecular target: T4, Adrenergic α2B Receptor (Homo sapiens, UniProt P18089); test: Radioligand binding, [3H] Rauwolscine; conditions: compound at 10 μM
# T4 construct: expressed in transfected cells; host or cells: CHO-K1 cells
# T4 sequence (P18089 1-450): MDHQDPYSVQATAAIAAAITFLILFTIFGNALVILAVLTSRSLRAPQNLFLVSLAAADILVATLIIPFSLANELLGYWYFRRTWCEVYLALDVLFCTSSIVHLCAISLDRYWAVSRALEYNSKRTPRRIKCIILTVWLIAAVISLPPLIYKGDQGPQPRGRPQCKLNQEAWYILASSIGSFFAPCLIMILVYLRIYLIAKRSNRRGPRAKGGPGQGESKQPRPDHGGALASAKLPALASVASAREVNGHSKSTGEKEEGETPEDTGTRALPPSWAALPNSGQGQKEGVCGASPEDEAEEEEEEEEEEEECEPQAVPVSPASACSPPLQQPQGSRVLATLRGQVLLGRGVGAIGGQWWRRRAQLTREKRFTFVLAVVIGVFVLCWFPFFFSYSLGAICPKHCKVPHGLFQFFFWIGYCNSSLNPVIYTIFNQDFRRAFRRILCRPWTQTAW
# Method: as §1
# (b) Adrenergic α2B Receptor:
# • Reference: S. Uhlen et al., Eur. J. Pharmacol., 343 (1): 93-1-01 (1998) • Source: Human recombinant CHO-K1 cells • Ligand: 2.5 nM [3H]
# T2 sequence (Q01827 whole entry): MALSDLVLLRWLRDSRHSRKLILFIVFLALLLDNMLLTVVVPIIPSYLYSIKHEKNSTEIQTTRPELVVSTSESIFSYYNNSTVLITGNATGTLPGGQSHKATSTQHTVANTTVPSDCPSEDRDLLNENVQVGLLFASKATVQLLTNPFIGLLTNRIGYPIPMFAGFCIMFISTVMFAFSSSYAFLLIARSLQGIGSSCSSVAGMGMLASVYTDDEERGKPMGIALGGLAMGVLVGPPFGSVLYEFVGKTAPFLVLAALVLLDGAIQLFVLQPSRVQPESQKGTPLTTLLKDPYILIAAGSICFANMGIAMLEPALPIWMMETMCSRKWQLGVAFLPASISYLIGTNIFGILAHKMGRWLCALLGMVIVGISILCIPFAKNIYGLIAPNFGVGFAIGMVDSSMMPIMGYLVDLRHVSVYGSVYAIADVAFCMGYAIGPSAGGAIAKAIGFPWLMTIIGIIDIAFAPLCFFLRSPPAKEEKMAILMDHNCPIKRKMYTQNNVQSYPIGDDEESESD
# T3 sequence (P21728 whole entry): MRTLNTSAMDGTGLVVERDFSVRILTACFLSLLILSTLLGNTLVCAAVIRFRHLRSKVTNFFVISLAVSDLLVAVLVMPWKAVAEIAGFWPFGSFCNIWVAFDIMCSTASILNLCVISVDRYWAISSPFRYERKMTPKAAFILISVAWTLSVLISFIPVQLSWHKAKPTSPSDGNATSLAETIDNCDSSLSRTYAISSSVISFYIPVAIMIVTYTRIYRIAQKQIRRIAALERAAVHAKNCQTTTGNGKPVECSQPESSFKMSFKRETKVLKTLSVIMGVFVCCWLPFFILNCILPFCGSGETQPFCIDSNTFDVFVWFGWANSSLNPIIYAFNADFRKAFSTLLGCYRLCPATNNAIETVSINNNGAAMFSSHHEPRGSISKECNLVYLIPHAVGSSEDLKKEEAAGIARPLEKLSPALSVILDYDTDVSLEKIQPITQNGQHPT
# T1 sequence (Q99720 whole entry): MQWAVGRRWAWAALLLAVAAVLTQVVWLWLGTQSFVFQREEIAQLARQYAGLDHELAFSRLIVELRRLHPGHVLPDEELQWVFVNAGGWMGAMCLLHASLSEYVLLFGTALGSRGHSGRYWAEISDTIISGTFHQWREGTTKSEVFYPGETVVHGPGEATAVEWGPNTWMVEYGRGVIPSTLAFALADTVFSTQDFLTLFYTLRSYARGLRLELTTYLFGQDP
Structure (SMILES),"% inhibition, (l) I2 Receptor (peripheral) [1] [%]","% inhibition, (m) σ1 Receptor [2] [%]",Bmax [3] [fmol/µg],Ki [3] [nM],"% inhibition, (d) D1 Receptor [4] [%]","% inhibition, (k) I2 Receptor (central) [5] [%]","% inhibition, (b) α2B Receptor [6] [%]"
"COc1cc2c(cc1O)[C@@H]1C[C@@H](O)[C@H](CC(C)C)CN1CC2 (single isomer, unassigned) [(+)-10-desmethyl-γ-dihydrotetrabenazine]",24,83,0.174 ± 0.035,451,29,24,21
"COc1cc2c(cc1O)[C@@H]1C[C@@H](O)[C@H](CC(C)C)CN1CC2 (single isomer, unassigned) [(−)-10-desmethyl-γ-dihydrotetrabenazine]",25,55,0.101 ± 0.009,1.82,96,66,44

# Source: patent publication US20100087475A1, “PHARMACEUTICAL COMPOUNDS” (Biovali Laboratories International (Barbados) S.R.L., priority 2008, published 2010)
